According to ChEMBL document CHEMBL1135938, “Synthesis of N-[4-[1-ethyl-2-(2,4-diaminofuro[2,3-d]pyrimidin-5-yl)ethyl]benzoyl]-L-glutamic acid as an antifolate” (J Med Chem, 2002):

Assays:
[1] = Inhibition of growth of R30dm (n=2); assay type: functional, Homo sapiens
R1 [2] = experiment: Inhibition of growth of R1 (n=2); details: Homo sapiens
R2 [3] = experiment: Inhibition of growth of R2 (n=2); assay type: functional, cell-based; details: Homo sapiens
MDA-N = experiment: Inhibition of growth of MDA-Nbreast cancer cell line; assay type: functional; details: Homo sapiens
CCRF-CEM [4] = experiment: Inhibition of growth of CCRF-CEM human leukemia cells (n=2); assay type: functional, cell-based
Thymidylate synthase [5] = target: Thymidylate synthase (Homo sapiens, UniProt P04818); experiment: Inhibition of recombinant human thymidylate synthase (TS)
Chain of Thymidylate synthase (Homo sapiens, UniProt P04818) (P04818 whole entry): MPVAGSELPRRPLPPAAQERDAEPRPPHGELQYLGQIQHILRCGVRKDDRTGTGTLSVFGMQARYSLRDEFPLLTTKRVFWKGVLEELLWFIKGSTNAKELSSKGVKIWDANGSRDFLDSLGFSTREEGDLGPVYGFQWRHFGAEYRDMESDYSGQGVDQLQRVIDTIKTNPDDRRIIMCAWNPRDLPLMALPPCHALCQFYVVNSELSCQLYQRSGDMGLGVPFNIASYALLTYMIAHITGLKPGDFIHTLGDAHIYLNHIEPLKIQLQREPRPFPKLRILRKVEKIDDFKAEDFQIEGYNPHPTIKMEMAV

K562 = experiment: Inhibition of growth of K-562 leukemia cell line; assay type: functional; details: Homo sapiens
CCRF-CEM [6] = experiment: Inhibition of growth of CCRF-CEM leukemia cell line; assay type: functional; details: Homo sapiens
R2 [7] = experiment: Inhibition of growth of R2(n=2); assay type: functional, cell-based; details: Homo sapiens
[8] = target: Bifunctional dihydrofolate reductase-thymidylate synthase (Toxoplasma gondii, UniProt Q07422); experiment: Inhibition of Toxoplasma gondii dihydrofolate reductase (DHFR)
Chain of Bifunctional dihydrofolate reductase-thymidylate synthase (Q07422 whole entry): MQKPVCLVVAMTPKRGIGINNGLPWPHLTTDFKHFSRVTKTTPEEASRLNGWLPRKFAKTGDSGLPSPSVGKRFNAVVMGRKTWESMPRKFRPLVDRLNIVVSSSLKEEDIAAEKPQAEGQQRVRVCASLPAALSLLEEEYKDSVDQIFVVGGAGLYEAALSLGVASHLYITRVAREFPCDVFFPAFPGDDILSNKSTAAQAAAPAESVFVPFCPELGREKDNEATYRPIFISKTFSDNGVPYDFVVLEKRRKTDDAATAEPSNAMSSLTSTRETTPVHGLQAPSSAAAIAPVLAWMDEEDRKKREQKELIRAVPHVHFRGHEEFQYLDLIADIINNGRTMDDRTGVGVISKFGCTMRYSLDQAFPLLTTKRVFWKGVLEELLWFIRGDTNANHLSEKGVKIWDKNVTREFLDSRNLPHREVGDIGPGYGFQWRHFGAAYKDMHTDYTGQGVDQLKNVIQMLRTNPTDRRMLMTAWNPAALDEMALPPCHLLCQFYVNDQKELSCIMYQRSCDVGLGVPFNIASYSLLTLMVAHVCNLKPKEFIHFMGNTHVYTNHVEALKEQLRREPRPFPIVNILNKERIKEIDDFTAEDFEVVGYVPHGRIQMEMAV

CAKI-1 = experiment: Inhibition of growth of CAKI-1 renal cancer cell line; assay type: functional; details: Homo sapiens
Dihydrofolate reductase [9] = target: Dihydrofolate reductase (Escherichia coli, UniProt P0ABQ4); experiment: Inhibition of Escherichia coli dihydrofolate reductase (DHFR)
Chain of Dihydrofolate reductase (Escherichia coli, UniProt P0ABQ4) (P0ABQ4 whole entry): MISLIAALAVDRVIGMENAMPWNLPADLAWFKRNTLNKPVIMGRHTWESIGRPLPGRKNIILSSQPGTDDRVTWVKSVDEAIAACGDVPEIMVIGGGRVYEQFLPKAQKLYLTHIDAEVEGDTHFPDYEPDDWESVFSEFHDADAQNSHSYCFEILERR

HCT-15 = experiment: Inhibition of growth of HCT -15 colon cancer cell line; assay type: functional; details: Homo sapiens
R1 [10] = experiment: Inhibition of growth of R1(n=2); details: Homo sapiens
A549 = experiment: Inhibition of growth of A549/ATCC nonsmall cell lung cancer cell line; assay type: functional; details: Homo sapiens
ACHN = experiment: Inhibition of growth of ACHN renal cancer cell line; assay type: functional; details: Homo sapiens
Thymidylate synthase [11] = target: Thymidylate synthase (Escherichia coli, UniProt C3SWJ7); experiment: Inhibition of Escherichia coli thymidylate synthase (TS)
Chain of Thymidylate synthase (Escherichia coli, UniProt C3SWJ7) (C3SWJ7 whole entry): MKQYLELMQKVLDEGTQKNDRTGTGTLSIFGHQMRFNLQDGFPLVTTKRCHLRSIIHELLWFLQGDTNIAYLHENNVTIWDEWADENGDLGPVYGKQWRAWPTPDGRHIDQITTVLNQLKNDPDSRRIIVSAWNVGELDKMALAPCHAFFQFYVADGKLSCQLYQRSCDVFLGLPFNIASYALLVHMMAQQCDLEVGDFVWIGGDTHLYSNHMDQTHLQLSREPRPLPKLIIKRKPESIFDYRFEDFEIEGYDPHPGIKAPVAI

LOX IMVI = experiment: Inhibition of growth of LOX IMVI melanoma cell line; assay type: functional; details: Homo sapiens
[12] = Inhibition of growth of IGROV1 ovarian cancer cell line; assay type: functional; details: Homo sapiens, IGROV-1
NCI-H522 = experiment: Inhibition of growth of NCI- H522 nonsmall cell lung cancer cell line; assay type: functional; details: Homo sapiens
RPMI-8226 = experiment: Inhibition of growth of RPMI-8226 leukemia cell line; assay type: functional; details: Homo sapiens
SF-295 = experiment: Inhibition of growth of SF-295 CNS cancer cell line; assay type: functional; details: Homo sapiens
HT-29 = experiment: Inhibition of growth of HT 29colon cancer cell line; assay type: functional; details: Homo sapiens
MDA-MB-435 = experiment: Inhibition of growth of MDA-MB-435 breast cancer cell line; assay type: functional; details: Homo sapiens
SR = experiment: Inhibition of growth of SR leukemia cell line; assay type: functional; details: Homo sapiens
HL-60 = experiment: Inhibition of growth of HL-60 leukemia cell line; assay type: functional; details: Homo sapiens
SK-MEL-5 = experiment: Inhibition of growth of SK-MEL5 melanoma cell line; assay type: functional; details: Homo sapiens
TK-10 = experiment: Inhibition of growth of TK-10 renal cancer cell line; assay type: functional; details: Homo sapiens
MCF7 = experiment: Inhibition of growth of MCF-7 breast cancer cell line; assay type: functional; details: Homo sapiens
SF-539 = experiment: Inhibition of growth of SF-539 CNS cancer cell line; assay type: functional; details: Homo sapiens
U-251 = experiment: Inhibition of growth of U251 CNS cancer cell line; assay type: functional; details: Homo sapiens
UO-31 = experiment: Inhibition of growth of UO-31 renal cancer cell line; assay type: functional; details: Homo sapiens
Dihydrofolate reductase [13] = target: Dihydrofolate reductase (Homo sapiens, UniProt P00374)
Chain of Dihydrofolate reductase (Homo sapiens, UniProt P00374) (P00374 whole entry): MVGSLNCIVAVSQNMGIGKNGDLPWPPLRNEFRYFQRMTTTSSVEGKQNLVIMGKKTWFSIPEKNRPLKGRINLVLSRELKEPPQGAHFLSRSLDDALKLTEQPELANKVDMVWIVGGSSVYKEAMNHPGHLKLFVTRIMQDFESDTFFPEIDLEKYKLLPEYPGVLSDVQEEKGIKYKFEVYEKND
Description: Inhibition of rh dihydrofolate reductase (DHFR)

OVCAR-5 = experiment: Inhibition of growth of OVCAR-5 ovarian cancer cell line; assay type: functional; details: Homo sapiens
NCI-H460 = experiment: Inhibition of growth of NCI-H460 nonsmall cell lung cancer cell line; assay type: functional; details: Homo sapiens
SF-268 = experiment: Inhibition of growth of SF-268 CNS cancer cell line; assay type: functional; details: Homo sapiens
SW-620 = experiment: Inhibition of growth of SW -620 colon cancer cell line; assay type: functional; details: Homo sapiens
[14] = substrate: CCC(Cc1coc2nc(N)cc(N)c12)c1ccc(C(=O)NC(CCC(=O)O)C(=O)O)cc1; experiment: folyl-poly-glutamate synthetase activity measured as Vmax
[15] = substrate: Nc1nc(N)c2nc(CNc3ccc(C(=O)N[C@@H](CCC(=O)O)C(=O)O)cc3)cnc2n1; experiment: folyl-poly-glutamate synthetase activity measured as Vmax; rel means relative
[16] = substrate: CCC(Cc1coc2nc(N)cc(N)c12)c1ccc(C(=O)NC(CCC(=O)O)C(=O)O)cc1; experiment: (§1) folyl-poly-glutamate synthetase activity measured as Km
[17] = substrate: Nc1nc(N)c2nc(CNc3ccc(C(=O)N[C@@H](CCC(=O)O)C(=O)O)cc3)cnc2n1; experiment: as §1

Work on `CN(Cc1cnc2nc(N)nc(N)c2n1)c1ccc(C(=O)N[C@@H](CCC(=O)O)C(=O)O)cc1` [METHOTREXATE] yielded an EC50 [1] of 15 nM, an EC50 (R1 [2]) of 1050 nM and an EC50 (R2 [3]) of 2600 nM.

In the case of `CCC(Cc1coc2nc(N)cc(N)c12)c1ccc(C(=O)NC(CCC(=O)O)C(=O)O)cc1` (configuration not stated), the GI50 (MDA-N) is reported as < 10 nM, the EC50 (CCRF-CEM [4]) is reported as 35.5 nM and the IC50 (Thymidylate synthase [5]) is reported as 220000 nM. For the same molecule, the GI50 (K562) was < 10 nM, the GI50 (CCRF-CEM [6]) was < 10 nM and the EC50 (R2 [7]) was 890 nM. For the same molecule, the IC50 [8] was 1100 nM, the GI50 (CAKI-1) was < 10 nM and the IC50 (Dihydrofolate reductase [9]) was 440 nM. For the same molecule, the GI50 (HCT-15) was < 10 nM, the EC50 (R1 [10]) was 2100 nM and the GI50 (A549) was 13.8 nM. For the same molecule, the GI50 (ACHN) was < 10 nM, the IC50 (Thymidylate synthase [11]) was 220000 nM and the GI50 (LOX IMVI) was 23.7 nM. For the same molecule, the GI50 [12] was < 10 nM, the GI50 (NCI-H522) was < 10 nM and the EC50 [1] was 50 nM. The GI50 (RPMI-8226) was < 10 nM, the GI50 (SF-295) was < 10 nM and the GI50 (HT-29) was 23.9 nM. The GI50 (MDA-MB-435) was < 10 nM, the GI50 (SR) was < 10 nM and the GI50 (HL-60) was < 10 nM. The GI50 (SK-MEL-5) was 81.8 nM, the GI50 (TK-10) was 340 nM and the GI50 (MCF7) was < 10 nM. For the same molecule, the GI50 (SF-539) was < 10 nM, the GI50 (U-251) was 23.2 nM and the GI50 (UO-31) was < 10 nM. For the same molecule, the IC50 (Dihydrofolate reductase [13]) was 220 nM, the GI50 (OVCAR-5) was < 10 nM and the GI50 (NCI-H460) was < 10 nM. The GI50 (SF-268) was < 10 nM and the GI50 (SW-620) was < 10 nM.

B1: Folylpolyglutamate synthase, mitochondrial (Homo sapiens), Q05932 (protein)
chain: MSRARSHLRAALFLAAASARGITTQVAARRGLSAWPVPQEPSMEYQDAVRMLNTLQTNAGYLEQVKRQRGDPQTQLEAMELYLARSGLQVEDLDRLNIIHVTGTKGKGSTCAFTECILRSYGLKTGFFSSPHLVQVRERIRINGQPISPELFTKYFWRLYHRLEETKDGSCVSMPPYFRFLTLMAFHVFLQEKVDLAVVEVGIGGAYDCTNIIRKPVVCGVSSLGIDHTSLLGDTVEKIAWQKGGIFKQGVPAFTVLQPEGPLAVLRDRAQQISCPLYLCPMLEALEEGGPPLTLGLEGEHQRSNAALALQLAHCWLQRQDRHGAGEPKASRPGLLWQLPLAPVFQPTSHMRLGLRNTEWPGRTQVLRRGPLTWYLDGAHTASSAQACVRWFRQALQGRERPSGGPEVRVLLFNATGDRDPAALLKLLQPCQFDYAVFCPNLTEVSSTGNADQQNFTVTLDQVLLRCLEHQQHWNHLDEEQASPDLWSAPSPEPGGSASLLLAPHPPHTCSASSLVFSCISHALQWISQGRDPIFQPPSPPKGLLTHPVAHSGASILREAAAIHVLVTGSLHLVGGVLKLLEPALSQ
In the case of B1, the Vmax [14] is reported as 0.37 rel, the Vmax [15] is reported as 1 rel and the Km [16] is reported as 1.1 µM. For the same molecule, the Km [17] was 3.2 µM.
